Data from PubChem BioAssay AID1963832 (Molecular Pharmacology Branch, DTP, NCI, 2024).

Tested on: 885724-159-R-J1-PDC complex spheroid viability
Experiment: Anticancer human tumor 885724-159-R-J1-PDC patient-derived pancreatic adenocarcinoma cell line growth inhibition [POLQ]
Details: for IC50: curve of first compound; for viability, T/C: stronger effect = lower value
How it was run: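 Three-cell-type spheroids modelling solid tumor plus stroma served as the readout system; POL inhibitors were tested individually and in combination, concentration ranges set by clinical Cmax where known.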

[1] = second compound 0.0316 µM, first compound 0.0316 µM
[2] = second compound 0.0316 µM, first compound 0.1 µM
[3] = second compound 0.0316 µM, first compound 0.316 µM
[4] = second compound 0.0316 µM, first compound 1 µM
[5] = second compound 0.0316 µM, first compound 3.16 µM
[6] = second compound 0.0316 µM, first compound 10 µM
[7] = second compound 0.1 µM, first compound 0.0316 µM
[8] = second compound 0.1 µM, first compound 0.1 µM
[9] = second compound 0.1 µM, first compound 0.316 µM
[10] = second compound 0.1 µM, first compound 1 µM
[11] = second compound 0.1 µM, first compound 3.16 µM
[12] = second compound 0.1 µM, first compound 10 µM
[13] = second compound 0.316 µM, first compound 0.0316 µM
[14] = second compound 0.316 µM, first compound 0.1 µM
[15] = second compound 0.316 µM, first compound 0.316 µM
[16] = second compound 0.316 µM, first compound 1 µM
[17] = second compound 0.316 µM, first compound 3.16 µM
[18] = second compound 0.316 µM, first compound 10 µM
[19] = second compound 1 µM, first compound 0.0316 µM
[20] = second compound 1 µM, first compound 0.1 µM
[21] = second compound 1 µM, first compound 0.316 µM
[22] = second compound 1 µM, first compound 1 µM
[23] = second compound 1 µM, first compound 3.16 µM
[24] = second compound 1 µM, first compound 10 µM
[25] = second compound 3.16 µM, first compound 0.0316 µM
[26] = second compound 3.16 µM, first compound 0.1 µM
[27] = second compound 3.16 µM, first compound 0.316 µM
[28] = second compound 3.16 µM, first compound 1 µM
[29] = second compound 3.16 µM, first compound 3.16 µM
[30] = second compound 3.16 µM, first compound 10 µM
[31] = second compound 10 µM, first compound 0.0316 µM
[32] = second compound 10 µM, first compound 0.1 µM
[33] = second compound 10 µM, first compound 0.316 µM
[34] = second compound 10 µM, first compound 1 µM
[35] = second compound 10 µM, first compound 3.16 µM
[36] = second compound 10 µM, first compound 10 µM
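Note: spheroids exposed to compounds for 7 days.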

With `CC(C)n1c(=O)n(C)c2cnc3cc(F)c(-c4ccc(OCCCN5CCCCC5)nc4)cc3c21` + Cc1cccc(N(C)C(=O)C2C(O)CCN2c2nc(C)cc(C(F)(F)F)c2C#N)c1 the IC50 (second compound 0.0316 µM) was > 10 µM, the IC50 (second compound 0.1 µM) was > 10 µM and the IC50 (second compound 0.316 µM) was > 10 µM. The IC50 (second compound 1 µM) was > 10 µM, the IC50 (second compound 3.16 µM) was > 10 µM and the IC50 (second compound 10 µM) was > 10 µM. For the same compound, the viability, T/C [1] was 104%, the viability, T/C [2] was 104% and the viability, T/C [3] was 99.9%. For the same compound, the viability, T/C [4] was 97.8%, the viability, T/C [5] was 93.9% and the viability, T/C [6] was 68.8%. It also gave a viability, T/C [7] of 108%, a viability, T/C [8] of 95.8% and a viability, T/C [9] of 109%. The viability, T/C [10] was 91.2%, the viability, T/C [11] was 96.8% and the viability, T/C [12] was 72.2%. For the same compound, the viability, T/C [13] was 109%, the viability, T/C [14] was 102% and the viability, T/C [15] was 102%. For the same compound, the viability, T/C [16] was 98.8%, the viability, T/C [17] was 99.3% and the viability, T/C [18] was 66.6%. For the same compound, the viability, T/C [19] was 104%, the viability, T/C [20] was 100% and the viability, T/C [21] was 104%. For the same compound, the viability, T/C [22] was 116%, the viability, T/C [23] was 87.7% and the viability, T/C [24] was 60.2%. The viability, T/C [25] was 106%, the viability, T/C [26] was 112% and the viability, T/C [27] was 107%. The viability, T/C [28] was 102%, the viability, T/C [29] was 86.2% and the viability, T/C [30] was 61.3%. It also gave a viability, T/C [31] of 106%, a viability, T/C [32] of 95.4% and a viability, T/C [33] of 111%. For the same compound, the viability, T/C [34] was 101%, the viability, T/C [35] was 88.9% and the viability, T/C [36] was 60.7%.
For `CCc1cc2c(N3CCc4c(cc(Cn5ccnc5)cc4-c4cn(C)nc4C(F)(F)F)C3=O)ccnc2c(OC)n1` + Cc1cccc(N(C)C(=O)C2C(O)CCN2c2nc(C)cc(C(F)(F)F)c2C#N)c1, the IC50 (second compound 0.0316 µM) was > 10 µM, the IC50 (second compound 0.1 µM) was > 10 µM and the IC50 (second compound 0.316 µM) was > 10 µM. The IC50 (second compound 1 µM) was > 10 µM, the IC50 (second compound 3.16 µM) was > 10 µM and the IC50 (second compound 10 µM) was > 10 µM. For the same compound, the viability, T/C [1] was 94%, the viability, T/C [2] was 82.9% and the viability, T/C [3] was 81.8%. For the same compound, the viability, T/C [4] was 89.2%, the viability, T/C [5] was 74.3% and the viability, T/C [6] was 78.4%. For the same compound, the viability, T/C [7] was 104%, the viability, T/C [8] was 81.7% and the viability, T/C [9] was 88.6%. For the same compound, the viability, T/C [10] was 83.6%, the viability, T/C [11] was 84.7% and the viability, T/C [12] was 63.8%. It also gave a viability, T/C [13] of 96%, a viability, T/C [14] of 89.9% and a viability, T/C [15] of 84.4%. For the same compound, the viability, T/C [16] was 89.1%, the viability, T/C [17] was 82.5% and the viability, T/C [18] was 59.5%. For the same compound, the viability, T/C [19] was 83.8%, the viability, T/C [20] was 84.7% and the viability, T/C [21] was 92.4%. For the same compound, the viability, T/C [22] was 79.7%, the viability, T/C [23] was 85.5% and the viability, T/C [24] was 62.8%. For the same compound, the viability, T/C [25] was 94.2%, the viability, T/C [26] was 85.5% and the viability, T/C [27] was 86.6%. For the same compound, the viability, T/C [28] was 89.7%, the viability, T/C [29] was 79.4% and the viability, T/C [30] was 72.6%. The viability, T/C [31] was 92.8%, the viability, T/C [32] was 83.7% and the viability, T/C [33] was 86.4%. The viability, T/C [34] was 87.8%, the viability, T/C [35] was 72.7% and the viability, T/C [36] was 63.5%.
For `COc1ccc([C@@H](O)c2cc(-c3ncnc4cc(N5CCOCC5)ccc34)c(F)cc2Cl)nn1` + Cc1cccc(N(C)C(=O)C2C(O)CCN2c2nc(C)cc(C(F)(F)F)c2C#N)c1, the IC50 (second compound 0.0316 µM) was 4.63 µM, the IC50 (second compound 0.1 µM) was 4.02 µM and the IC50 (second compound 0.316 µM) was 4.68 µM. The IC50 (second compound 1 µM) was 3.96 µM, the IC50 (second compound 3.16 µM) was 4.44 µM and the IC50 (second compound 10 µM) was 4.6 µM. The viability, T/C [1] was 112%, the viability, T/C [2] was 90.2% and the viability, T/C [3] was 88.6%. It also gave a viability, T/C [4] of 70.1%, a viability, T/C [5] of 60.5% and a viability, T/C [6] of 35.6%. It also gave a viability, T/C [7] of 93.7%, a viability, T/C [8] of 91.6% and a viability, T/C [9] of 81.5%. The viability, T/C [10] was 64.7%, the viability, T/C [11] was 56.7% and the viability, T/C [12] was 35.2%. For the same compound, the viability, T/C [13] was 104%, the viability, T/C [14] was 84.8% and the viability, T/C [15] was 81.1%. The viability, T/C [16] was 81.9%, the viability, T/C [17] was 57.2% and the viability, T/C [18] was 33.7%. For the same compound, the viability, T/C [19] was 103%, the viability, T/C [20] was 93.2% and the viability, T/C [21] was 89%. The viability, T/C [22] was 68%, the viability, T/C [23] was 55.3% and the viability, T/C [24] was 34.5%. The viability, T/C [25] was 100%, the viability, T/C [26] was 92.5% and the viability, T/C [27] was 85.1%. For the same compound, the viability, T/C [28] was 78.6%, the viability, T/C [29] was 55.2% and the viability, T/C [30] was 33.4%. The viability, T/C [31] was 101%, the viability, T/C [32] was 90.3% and the viability, T/C [33] was 85.1%. The viability, T/C [34] was 77%, the viability, T/C [35] was 55.9% and the viability, T/C [36] was 34.9%.
